The values that follow come from patent publication US20160050959A1, “TABLET COMPRISING FRUCTOSE” (NATURALIA INGREDIENTS S.R.L., priority 2013, published 2016).

The nature of series [1]: Compressibility (compression force versus tablet hardness). It is filed as physicochemical. Conditions: 98% fructose + 2% leucine, direct compression 12 kN. Here is the method: Compressibility: the compressibility was evaluated by measuring the compression force of the compression machine used and the hardness of the tablet. With the same hardness, the formulation that requires less compression force is more compressible.

Series [2] in a line: Colour change of tablets after direct compression. It is filed as physicochemical. Conditions: 98% fructose + 2% leucine. Here is the method: The tablets were prepared by direct compression, after 15 min. mixing of the ingredients, using a Korsch XL 400 compression machine with force of 12 kN and rotation speed of 20,000 tablets/h.
The conditions of series [3]: studies on mice followed by clinical trials on humans; cited from earlier work.
For series [4] the following is noted: at 20° C.; cited from earlier work.
Series [5] is described as follows: Cracking off, operator observation. It counts as physicochemical. Particulars: 98% fructose + 2% leucine; operator evaluation. Here is the method: Cracking off: the cracking off was evaluated directly by the machine operator by observing the tablets both during mould ejection and during the friability test. The tablets must never crack into two mirror-image parts with crack horizontal to the edge, or have visible cracks on the same edge.

Series [6] in a line: Friability, evaluation by the operator. It is filed as physicochemical. Conditions: 98% fructose + 2% leucine. Here is the method:
Friability: friability is measured with the friabilimeter and relative method described in Pharmacopoeia Europea (note: in our specific case, an evaluation by the operator was performed, not a measurement).

Series [7] can be described thus: Tablet stability tests / stability to humidity. It counts as physicochemical. Conditions: tablets of 98% fructose + 2% leucine, grape versus commercial fructose.
The mark [8] stands for this setting: listed as crystalline grape fructose.

In the case of `O=C(CO)[C@@H](O)[C@H](O)[C@H](O)CO` [commercial fructose, fructose], in series [1], the Compressibility result is on record as “very poor”. Also, the “colour change of tablet” value in series [2] is “tendency to form yellow patches”.
As to `O=C(CO)[C@@H](O)[C@H](O)[C@H](O)CO` [fructose extracted from fruit, fructose], in series [3], the insulin secretion entry is “very low”.
As to `O=C(CO)[C@@H](O)[C@H](O)[C@H](O)CO` [fructose], the solubility in water entry in series [4] is recorded as “approx. 80%”.
For the compound `O=C(CO)[C@@H](O)[C@H](O)[C@H](O)CO` [grape fructose, fructose], the Cracking off entry in series [5] is on record as “does not tend to cracking off”. Besides, the Compressibility entry in series [1] is “compressed better”; in series [1] (setting [8]), “compresses well”. In addition, the figures for the “colour change of tablet” value in series [2] and in series [2] (setting [8]) were “did not change colour” and “does not change colour”, respectively. For the same compound, the Friability result in series [6] is reported as “is not friable”. The stability result in series [7] is listed as “more stable”; in series [7] (setting [8]) it was “more resistant to the stability tests”.
